{
  "source": "paper PMC4358366",
  "about": "“Identification of ‘erasers’ for lysine crotonylated histone marks using a chemical proteomics approach” (eLife, 2014)",
  "origin": "cited, not measured here",
  "details_in_all_cases": "H3K9Cr peptide, residues 5–13; [32P]-NAD TLC; ref Feldman et al., 2013; cited from earlier work",
  "key": {"Sirt1": {"system": "Sirt1", "text": "(§1) Lysine crotonylation (Kcr) is a newly discovered histone PTM that is specifically enriched at active gene promoters and potential enhancers in mammalian cell genomes ([Tan et al., 2011]). […] However, further mechanistic and functional studies of histone Kcr have been limited by a lack of knowledge of the enzymes that catalyze the addition or removal of Kcr in cells. In a systematic screening of the activities of the ... || Siruins were initially recognized as NAD-dependent deacetylases ([Imai et al., 2000]; [Landry et al., 2000]; [Sauve et al., 2006]). […] In this study ..."}, "Sirt2": {"system": "Sirt2", "text": "as §1"}, "Sirt3": {"system": "Sirt3", "text": "Siruins were initially recognized as NAD-dependent deacetylases ([Imai et al., 2000]; [Landry et al., 2000]; [Sauve et al., 2006]). […] In this study ..."}},
  "note": "Entries after “also recorded” stand apart in the source; their conditions may differ. Where no end group is shown, it is not given here. The star is where a group is joined. Crotonyl(E) = C/C=C/C(=O)*",
  "data": [
    {"substance": "histone H3K9Cr peptide: H3K9Cr peptide of Denu's study, residues 5–13 of histone H3 (QTARK(Crotonyl(E))STGG; UniProt P68431 6-14, looked up, fragment)", "values": [
      {"measurement": "decrotonylase activity of Sirt1 (literature)", "setting": "Sirt1", "result": "exhibited decrotonylase activity; also recorded: can catalyze the removal of a crotonyl group"},
      {"measurement": "decrotonylase activity of Sirt2 (literature)", "setting": "Sirt2", "result": "exhibited decrotonylase activity; also recorded: can catalyze the removal of a crotonyl group"},
      {"measurement": "decrotonylase activity of Sirt3 (literature)", "setting": "Sirt3", "result": "totally inactive"}
    ]}
  ]
}
